According to patent US7138543B2, “Thiolalkyl benzoic acid derivatives” (Guilford Pharmaceuticals Inc., priority 2001, dated 2006):

Tests used:
TGF-β1 [1] = experiment: TGF-β1 levels by microdialysis in MCAO rats; assay type: in vivo; details: during occlusion and reperfusion, FIG. 6
[2] = tested on: chronic constrictive injury-induced rats; experiment: Neuropathic pain in CCI model (sciatic nerve ligation); assay type: in vivo
Description: In vivo Assay of NAALADase Inhibitors on Neuropathic Pain in CCI Model
Sciatic nerve ligation, consisting of 4 ligatures tied loosely around the sciatic nerve at 1 mm intervals proximal to the nerve trifurcation, was performed on rats. […] The rats were habituated to a Hargreaves apparatus. An infrared heat source was directed onto the dorsal surface of each rat's hindpaws and the time taken for the rat to withdraw its paws was noted. The difference in scores between the latency of the response for the paw on the operated side versus the paw on the unoperated control side was determined.

TGF-β2 = experiment: Effect on TGF-β2 in in vitro ischemia model; assay type: cell-based; details: ischemic cell cultures, FIG. 2
Description: (§1) Effect of NAALADase Inhibition on TGF-β in In vitro Ischemia Model Compound C was added to ischemia cell cultures to determine its effect on TGF-β levels during stroke.

TGF-β1 [3] = experiment: Effect on TGF-β1 in in vitro ischemia model; assay type: cell-based; details: ischemic cell cultures, FIG. 1
Description: as §1

ischemic cell cultures = experiment: Neuroprotective effect with growth factor neutralizing antibodies in in vitro ischemia model; assay type: cell-based
Description: TGF-β neutralizing antibodies were then added to the ischemic cell cultures.

[4] = tested on: rats subjected to middle cerebral artery occlusion; experiment: Neuroprotective effect with TGF-β neutralizing antibodies in MCAO rats; assay type: in vivo; details: FIG. 5
Description: The effect of TGF-β neutralizing antibodies on the neuroprotective effect of Compound C was also studied in rats following MCAO.
One of ordinary skill in the art can appreciate that the regulation of TGF-β's by NAALADase inhibitors may have implications not only in stroke, but also in other diseases, disorders and conditions including, without limitation, neurological diseases, psychiatric diseases, demyelinating diseases, prostate cancer, inflammation, diabetes and angiogenesis.

O=C(O)CCC(CP(=O)(O)O)C(=O)O (centres unmarked) [Compound C, 2-(phosphonomethyl)pentanedioic acid]
TGF-β1 levels (TGF-β1 [1]): significant rise in TGF-β1 levels | withdrawal latency difference scores between operated and unoperated paws ([2]; 50 mg/kg i.p. daily starting 10 days post surgery, FIG. 8): dramatically normalized the difference scores | start of significant effect on difference scores ([2]; 50 mg/kg i.p. daily, persisted to end of study (21 days of daily dosing)): 11 days of drug treatment | TGF-β2 concentration (TGF-β2): increased concentration | TGF-β1 concentration (TGF-β1 [3]): increased concentration | neuroprotective effect in presence of TGF-β neutralizing antibodies (ischemic cell cultures; FIG. 3): blocked the neuroprotective effect | neuroprotective effect in presence of FGF antibody (ischemic cell cultures; FIG. 4): did not block the neuroprotective effect | neuroprotective effect in presence of TGF-β neutralizing antibodies [4]: significantly attenuated the neuroprotective effect
